In patent US10183918B2, “Oxa-azaspiro compounds having activity against pain” (LABORATORIOS DEL DR. ESTEVE S.A., priority 2015, dated 2019) one finds Ki data, which are given here for 28 molecules.

Where only a bound is given, the exact number is not on record here.

This assay has as its target T1, human σ1 receptor (Homo sapiens, UniProt Q99720).
T1 construct: expressed in transfected cells; host or cells: HEK-293 (membranes)
Kind of assay: Human σ1 receptor radioligand assay. Conditions: transfected HEK-293 membranes, 5 nM [3H](+)-pentazocine as radioligand. It counts as binding. The method, then: Human σ1 Receptor Radioligand Assay
To investigate binding properties of test compounds to human σ1 receptor, transfected HEK-293 membranes and [^3H](+)-pentazocine (Perkin Elmer, NET-1056), as the radioligand, were used. The assay was carried out with 7 μg of membrane suspension, 5 nM of [^3H](+)-pentazocine in either absence or presence of either buffer or 10 μM Haloperidol for total and non-specific binding, respectively. Binding buffer contained Tris-HCl 50 mM at pH 8. Plates were incubated at 37° C. for 120 minutes. After the incubation period, the reaction mix was then transferred to Multiscreen HTS, FC plates (Millipore), filtered and plates were washed 3 times with ice-cold 10 mM Tris-HCL (pH7.4). Filters were dried and counted at approximately 40% efficiency in a MicroBeta scintillation counter (Perkin-Elmer) using EcoScint liquid scintillation cocktail

T1 sequence (Q99720 whole entry): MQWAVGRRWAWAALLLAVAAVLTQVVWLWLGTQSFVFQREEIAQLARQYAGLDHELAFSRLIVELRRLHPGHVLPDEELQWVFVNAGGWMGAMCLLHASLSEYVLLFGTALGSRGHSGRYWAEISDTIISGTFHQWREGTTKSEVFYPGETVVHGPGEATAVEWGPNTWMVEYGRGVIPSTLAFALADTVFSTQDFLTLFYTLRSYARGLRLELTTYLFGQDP

One may read the Ki as the equilibrium dissociation constant of an inhibitor or competing ligand from its target. With `CCN1C[C@]2(CC[C@H](N(C)CCc3ccccc3)CC2)OCC1=O` [Example 51, (6s,9s)-4-ethyl-9-(methyl(phenethyl)amino)-1-oxa-4-azaspiro[5.5]undecan-3-one], the Ki was < 500 nM. `CCN1C[C@]2(CC[C@@H](NCc3ccccc3)CC2)OC2(CC2)C1=O` [Example 2, (5r,8r)-8-(benzylamino)-12-ethyl-4-oxa-12-azadispiro[2.1.5.3]tridecan-13-one]: the inhibition constant (Ki) is < 500 nM. As for `CN(CCc1ccccc1)[C@H]1CC[C@]2(CC1)CN(c1ccccc1)C(=O)C1(CC1)O2` [Example 15, (5r,8r)-8-[methyl(2-phenylethyl)amino]-12-phenyl-4-oxa-12-azadispiro[2.1.5.3]tridecan-13-one], the inhibition constant Ki is < 500 nM.

For the molecule `CCN1C[C@]2(CC[C@@H](N(C)CCC(C)C)CC2)OC2(CC2)C1=O` [Example 27, (5r,8r)-12-ethyl-8-[methyl(3-methylbutyl)amino]-4-oxa-12-azadispiro[2.1.5.3]tridecan-13-one], the Ki was < 500 nM.

As for `CCN1CC2(CC2)O[C@]2(CC[C@H](N(C)Cc3ccccc3)CC2)C1` [Example 18, (5r,8r)-N-benzyl-12-ethyl-N-methyl-4-oxa-12-azadispiro[2.1.5.3]tridecan-8-amine], the Ki is < 500 nM. As for `CCN1C[C@]2(CC[C@H](N(C)CCC(C)C)CC2)OC(C)(C)C1=O` [Example 53, (6s,9s)-4-ethyl-9-(isopentyl(methyl)amino)-2,2-dimethyl-1-oxa-4-azaspiro[5.5]undecan-3-one], the inhibition constant (Ki) is < 500 nM. To `CC(C)CCN(C)[C@H]1CC[C@]2(CC1)CN(c1ccccc1)CC1(CC1)O2` [Example 32, (5r,8r)-N-rnethyl-N-(3-methylbutyl)-12-phenyl-4-oxa-12-azadispiro[2.1.5.3]tridecan-8-amine] belongs < 100 nM; to `CN(Cc1ccccc1)[C@H]1CC[C@@]2(CC1)CN(c1ccccc1)C(=O)C1(CC1)O2` [Example 8, (5s,8s)-8-[benzyl(methyl)amino]-12-phenyl-4-oxa-12-azadispiro[2.1.5.3]tridecan-13-one], < 100 nM; to `CCN1C[C@]2(CC[C@H](NCCc3ccccc3)CC2)OC2(CC2)C1=O` [Example 6, (5s,8s)-12-ethyl-8-[(2-phenylethyl)amino]-4-oxa-12-azadispiro[2.1.5.3]tridecan-13-one], < 500 nM.

In the case of `CC(C)CCN(C)[C@H]1CC[C@@]2(CC1)CN(C(=O)c1ccccc1)CC1(CC1)O2` [Example 59, ((5s,8s)-8-[isopentyl(methyl)amino]-4-oxa-12-azadispiro[2.1.5.3]tridecan-12-yl)(phenyl)methanone], the inhibitory constant (Ki) is < 500 nM. For `CCN1CCO[C@]2(CC[C@@H](N(C)CCC(C)C)CC2)C1` [Example 63, (6s,9s)-4-ethyl-N-isopentyl-N-methyl-1-oxa-4-azaspiro[5.5]undecan-9-amine], the inhibitory constant (Ki) is < 500 nM. For `CN(CCc1ccccc1)[C@H]1CC[C@@]2(CC1)CN(Cc1ccccc1)CC1(CC1)O2` [Example 67, (5s,8s)-12-benzyl-N-methyl-N-(2-phenylethyl)-4-oxa-12-azadispiro[2.1.5.3]tridecan-8-amine], the inhibition constant Ki was < 100 nM. Regarding `CCN1C[C@]2(CC[C@@H](N(C)Cc3ccccc3)CC2)OC2(CC2)C1=O` [Example 16, (5r,8r)-8-[benzyl(methyl)amino]-12-ethyl-4-oxa-12-azadispiro[2.1.5.3]tridecan-13-one], the inhibition constant (Ki) is < 100 nM. In the case of `CCN1C[C@]2(CC[C@H](NCc3ccccc3)CC2)OC2(CC2)C1=O` [Example 1, (5s,8s)-8-(benzylamino)-12-ethyl-4-oxa-12-azadispiro[2.1.5.3]tridecan-13-one], the Ki is ≥ 500 nM.

With `CN[C@H]1CC[C@]2(CC1)CN(c1ccccc1)CC1(CC1)O2` [Example 26, (5r,8r)-N-rnethyl-12-phenyl-4-oxa-12-azadispiro[2.1.5.3]tridecan-8-amine acetate], the Ki was ≥ 500 nM. Take `CN[C@H]1CC[C@@]2(CC1)CN(c1ccccc1)C(=O)C1(CC1)O2` [Example 23, (5s,8s)-8-(methylamino)-12-phenyl-4-oxa-12-azadispiro[2.1.5.3]tridecan-13-one acetate]: the Ki was ≥ 500 nM. The figure for `CN(Cc1ccccc1)[C@H]1CC[C@@]2(CC1)CN(C(=O)c1ccccc1)CC1(CC1)O2` [Example 45, ((5s,8s)-8-[Benzyl(methyl)amino]-4-oxa-12-azadispiro[2.1.5.3]tridecan-12-yl)(phenyl)methanone] is < 100 nM. `O=C1N(c2ccccc2)C[C@]2(CC[C@H](NCCc3ccccc3)CC2)OC12CC2` [Example 11, (5s,8s)-12-phenyl-8-[(2-phenylethyl)amino]-4-oxa-12-azadispiro[2.1.5.3]tridecan-13-one]: the inhibitory constant (Ki) was < 500 nM. For `CC(C)CCN(C)[C@H]1CC[C@@]2(CC1)CN(c1ccccc1)C(=O)C1(CC1)O2` [Example 29, (5s,8s)-8-[methyl(3-methylbutyl)amino]-12-phenyl-4-oxa-12-azadispiro[2.1.5.3]tridecan-13-one], the Ki was < 500 nM.

Turning to `CN[C@H]1CC[C@]2(CC1)CN(c1ccccc1)C(=O)C1(CC1)O2` [Example 24, (5r,8r)-8-(methylamino)-12-phenyl-4-oxa-12-azadispiro[2.1.5.3]tridecan-13-one acetate], the Ki is ≥ 500 nM. To `O=C1N(c2ccccc2)C[C@]2(CC[C@@H](NCc3ccccc3)CC2)OC12CC2` [Example 12, (5r,8r)-8-(benzylamino)-12-phenyl-4-oxa-12-azadispiro[2.1.5.3]tridecan-13-one] belongs ≥ 500 nM.

`CCN1C[C@]2(CC[C@@H](N(C)CCc3ccccc3)CC2)OC2(CC2)C1=O` [Example 4, (5r,8r)-12-ethyl-8-[methyl(2-phenylethyl)amino]-4-oxa-12-azadispiro[2.1.5.3]tridecan-13-one]: the Ki is < 100 nM. For `CCN1C[C@]2(CC[C@H](NCc3ccccc3)CC2)OC(C)(C)C1=O` [Example 39, (6s,9s)-9-(benzylamino)-4-ethyl-2,2-dimethyl-1-oxa-4-azaspiro[5.5]undecan-3-one], the Ki was ≥ 500 nM. Regarding `CCN1C[C@]2(CC[C@@H](N(C)Cc3ccccc3)CC2)OC(C)(C)C1=O` [Example 44, (6r,9r)-9-(benzyl(methyl)amino)-4-ethyl-2,2-dimethyl-1-oxa-4-azaspiro[5.5]undecan-3-one], the Ki was < 500 nM. To `CCN1C[C@]2(CC[C@H](NC)CC2)OC(C)(C)C1=O` [Example 48, (6s,9s)-4-ethyl-2,2-dimethyl-9-(methylamino)-1-oxa-4-azaspiro[5.5]undecan-3-one acetate] belongs ≥ 500 nM. Regarding `CCN1CC(C)(C)O[C@]2(CC[C@@H](N(C)CCC(C)C)CC2)C1` [Example 64, (6s,9s)-4-ethyl-N-isopentyl-N,2,2-trimethyl-1-oxa-4-azaspiro[5.5]undecan-9-amine], the Ki was < 100 nM. To `CCN1CCO[C@]2(CC[C@@H](N(C)CCc3ccccc3)CC2)C1` [Example 61, (6s,9s)-4-ethyl-N-methyl-N-phenethyl-1-oxa-4-azaspiro[5.5]undecan-9-amine] belongs < 100 nM. Take `CCN1C[C@]2(CC[C@@H](N(C)CCc3ccccc3)CC2)OC(C)(C)C1=O` [Example 56, (6r,9r)-4-ethyl-2,2-dimethyl-9-(methyl(phenethyl)amino)-1-oxa-4-azaspiro[5.5]undecan-3-one]: the Ki was < 100 nM.
